What was measured:
Format in all cases: in vivo
[1] = test system: Plutella xylostella (Diamondback Moth); assay: Example B14: activity against Plutella xylostella (diamondback moth), 96-well artificial diet; conditions: 216 h, application rate 500 ppm, 9 days after infestation
Procedure: Example B14: Activity Against Plutella xylostella (Diamondback Moth)
96-well microtiter plates containing artificial diet were treated with aqueous test solutions, prepared from 10,000 ppm DMSO stock solutions, by a liquid handling robot. After drying, eggs (30 per well) were infested onto a netted lid which was suspended above the diet. The eggs hatch and L1 larvae move down to the diet. The samples were assessed for mortality 9 days after infestation.
The following compounds gave an effect of at least 80% average mortality at an application rate of 500 ppm: […]

[2] = test system: Plutella xylostella (Diamond Back Moth); assay: Example B5: Plutella xylostella (diamond back moth), artificial diet, 24-well, eggs; conditions: 192 h, application rate 200 ppm, 8 days after infestation, read-out: effect in at least one of the two categories (mortality or growth inhibition)
Procedure: Example B5: Plutella xylostella (Diamond Back Moth)
24-well microtiter plates with artificial diet were treated with aqueous test solutions prepared from 10,000 ppm DMSO stock solutions by pipetting. After drying, Plutella eggs were pipetted through a plastic stencil onto a gel blotting paper and the plate was closed with it. The samples were assessed for mortality and growth inhibition in comparison to untreated samples 8 days after infestation. The following compounds gave an effect of at least 80% in at least one of the two categories (mortality or growth inhibition) at an application rate of 200 ppm: […]

[3] = test system: Myzus persicae (Green Peach Aphid); assay: Example B13: activity against Myzus persicae (green peach aphid), 96-well sucrose solution; conditions: 120 h, application rate 50 ppm, 5 days after infestation
Description: Example B13: Activity Against Myzus persicae (Green Peach Aphid)
Test compounds prepared from 10,000 ppm DMSO stock solutions were applied by a liquid handling robot into 96-well microtiter plates and mixed with a sucrose solution. Parafilm was stretched over the 96-well microtiter plate and a plastic stencil with 96 holes was placed onto the plate. Aphids were sieved into the wells directly onto the Parafilm. The infested plates were closed with a gel blotting card and a second plastic stencil and then turned upside down. The samples were assessed for mortality 5 days after infestation.

[4] = test system: Diabrotica Balteata (Corn Root Worm); assay: Example B1: Diabrotica balteata (corn root worm), maize sprouts sprayed, L2 larvae; conditions: 96 h, application rate 200 ppm, 4 days after infestation, read-out: effect in at least one of the two categories (mortality or growth inhibition)
Procedure: Example B1: Diabrotica Balteata (Corn Root Worm)
Maize sprouts placed onto an agar layer in 24-well microtiter plates were treated with aqueous test solutions prepared from 10,000 ppm DMSO stock solutions by spraying. After drying, the plates were infested with L2 larvae (6 to 10 per well). The samples were assessed for mortality and growth inhibition in comparison to untreated samples 4 days after infestation.
The following compounds gave an effect of at least 80% in at least one of the two categories (mortality or growth inhibition) at an application rate of 200 ppm: […]

[5] = test system: Spodoptera littoralis (Egyptian Cotton Leaf Worm); assay: Example B9: Spodoptera littoralis (Egyptian cotton leaf worm), cotton leaf discs sprayed, L1 larvae; conditions: foliar, 72 h, application rate 200 ppm, 3 days after infestation
Procedure: Example B9: Spodoptera littoralis (Egyptian Cotton Leaf Worm)
Cotton leaf discs were placed onto agar in 24-well microtiter plates and sprayed with aqueous test solutions prepared from 10,000 ppm DMSO stock solutions. After drying the leaf discs were infested with five L1 larvae. The samples were assessed for mortality, anti-feeding effect, and growth inhibition in comparison to untreated samples 3 days after infestation. Control of Spodoptera littoralis by a test sample is given when at least one of the three categories (i.e. mortality, anti-feedant effect, and growth inhibition) is higher than the untreated sample.

SMILES	mortality at 500 ppm [1]	percent effect (mortality or growth inhibition) at 200 ppm [2]	other results
CC(c1ncnn1-c1ncccn1)N(CC1CC1)C(=O)c1ccc(-n2ccc(C(F)(F)F)n2)cc1 (stereo not shown) [P1, N-(cyclopropylmethyl)-N-[1-(2-pyrimidin-2-yl-1,2,4-triazol-3-yl)ethyl]-4-[3-(trifluoromethyl)pyrazol-1-yl]benzamide]	≥ 80%	–	–
CC(c1ncnn1-c1ncccn1)N(CC1CC1)C(=O)c1ccc(C2(C#N)CC2)cc1 (stereo not shown) [P2, 4-(1-cyanocyclopropyl)-N-(cyclopropylmethyl)-N-[1-(2-pyrimidin-2-yl-1,2,4-triazol-3-yl)ethyl]benzamide]	≥ 80%	–	–
CC(c1ncnn1-c1ncccn1)N(CC1CC1)C(=O)c1cccc(-c2ccc(C(F)(F)F)cc2)c1 (stereo not shown) [P3, N-(cyclopropylmethyl)-N-[1-(2-pyrimidin-2-yl-1,2,4-triazol-3-yl)ethyl]-3-[4-(trifluoromethyl)phenyl)benzamide]	≥ 80%	≥ 80%	–
CC(c1ncnn1-c1ncccn1)N(CC1CC1)C(=O)c1cccc(-c2ccc(F)cc2)c1 (stereo not shown) [P4, N-(cyclopropylmethyl)-3-(4-fluorophenyl)-N-[1-(2-pyrimidin-2-yl-1,2,4-triazol-3-yl)ethyl]benzamide]	≥ 80%	–	–
CC(c1ncnn1-c1ncccn1)N(CC1CC1)C(=O)c1ccc(-c2ccc(F)cc2)cc1 (stereo not shown) [P5, N-(cyclopropylmethyl)-4-(4-fluorophenyl)-N-[1-(2-pyrimidin-2-yl-1,2,4-triazol-3-yl)ethyl]benzamide]	≥ 80%	≥ 80%	–
CC(c1ncnn1-c1ncccn1)N(CC1CC1)C(=O)c1cncc(-c2cccc(C(F)(F)F)c2)c1 (stereo not shown) [P8, N-(cyclopropylmethyl)-N-[1-(2-pyrimidin-2-yl-1,2,4-triazol-3-yl)ethyl]-5-[3-(trifluoromethyl)phenyl]pyridine-3-carboxamide]	–	≥ 80%	–
CC(c1ncnn1-c1ncccn1)N(CC1CC1)C(=O)c1cc(-c2cccc(C(F)(F)F)c2)ccn1 (stereo not shown) [P9, N-(cyclopropylmethyl)-N-[1-(2-pyrimidin-2-yl-1,2,4-triazol-3-yl)ethyl]-4-[3-(trifluoromethyl)phenyl]pyridine-2-carboxamide]	≥ 80%	≥ 80%	–
CC(c1ncnn1-c1ncccn1)N(CC1CC1)C(=O)c1cnc(C2CC2)nc1 (stereo not shown) [P11, 2-cyclopropyl-N-(cyclopropylmethyl)-N-[1-(2-pyrimidin-2-yl-1,2,4-triazol-3-yl)ethyl]pyrimidine-5-carboxamide]	–	–	mortality at 50 ppm [3]: ≥ 80%
CC(c1ncnn1-c1ncccn1)N(CC1CC1)C(=O)c1cccc(-c2cccc(C(F)(F)F)c2)n1 (stereo not shown) [P15, N-(cyclopropylmethyl)-N-[1-(2-pyrimidin-2-yl-1,2,4-triazol-3-yl)ethyl]-6-[3-(trifluoromethyl)phenyl]pyridine-2-carboxamide]	≥ 80%	≥ 80%	mortality at 50 ppm [3]: ≥ 80%
CC(c1ncnn1-c1ncccn1)N(CC1CC1)C(=O)c1ccc(Oc2ccc(C(F)(F)F)cc2)cc1 (stereo not shown) [P16, N-(cyclopropylmethyl)-N-[1-(2-pyrimidin-2-yl-1,2,4-triazol-3-yl)ethyl]-4-[4-(trifluoromethyl)phenoxy]benzamide]	–	–	percent effect (mortality or growth inhibition) at 200 ppm [4]: ≥ 80%
CC(c1ncnn1-c1ncccn1)N(CC1CC1)C(=O)c1ccc(N2CCCCC2=O)cc1 (stereo not shown) [P17, N-(cyclopropylmethyl)-4-(2-oxo-1-piperidyl)-N-[1-(2-pyrimidin-2-yl-1,2,4-triazol-3-yl)ethyl]benzamide]	–	–	mortality at 50 ppm [3]: ≥ 80%
CC(c1ncnn1-c1ncccn1)N(CC1CC1)C(=O)c1ccc(-n2ccccc2=O)cc1 (stereo not shown) [P18, N-(cyclopropylmethyl)-4-(2-oxo-1-pyridyl)-N-[1-(2-pyrimidin-2-yl-1,2,4-triazol-3-yl)ethyl]benzamide]	–	–	mortality at 50 ppm [3]: ≥ 80%
CC(c1ncnn1-c1ncccn1)N(CC1CC1)C(=O)c1cc(N2CC(F)(F)C2)cc(C(F)(F)F)c1 (stereo not shown) [P20, N-(cyclopropylmethyl)-3-(3,3-difluoroazetidin-1-yl)-N-[1-(2-pyrimidin-2-yl-1,2,4-triazol-3-yl)ethyl]-5-(trifluoromethyl)benzamide]	≥ 80%	–	mortality at 50 ppm [3]: ≥ 80%
CC(c1ncnn1-c1ncccn1)N(CC1CC1)C(=O)c1cc(Cl)cc(C(C)(C)C#N)n1 (stereo not shown) [P28, 4-chloro-6-(1-cyano-1-methyl-ethyl)-N-(cyclopropylmethyl)-N-[1-(2-pyrimidin-2-yl-1,2,4-triazol-3-yl)ethyl]pyridine-2-carboxamide]	≥ 80%	–	–
CC(c1ncnn1-c1ncccn1)N(CC1CC1)C(=O)c1cc(-c2ccc(F)cc2)cc(C(F)(F)F)c1 (stereo not shown) [P36, N-(cyclopropylmethyl)-3-(4-fluorophenyl)-N-[1-(2-pyrimidin-2-yl-1,2,4-triazol-3-yl)ethyl]-5-(trifluoromethyl)benzamide]	≥ 80%	≥ 80%	percent control (mortality, anti-feedant effect or growth inhibition) at 200 ppm [5]: ≥ 80%
CC(c1ncnn1-c1ncccn1)N(CC1CC1)C(=O)c1cc(C(F)(F)F)cc(C2(C)CC2)c1 (stereo not shown) [P38, N-(cyclopropylmethyl)-3-(1-methylcyclopropyl)-N-[1-(2-pyrimidin-2-yl-1,2,4-triazol-3-yl)ethyl]-5-(trifluoromethyl)benzamide]	≥ 80%	≥ 80%	–
CC(c1ncnn1-c1ncccn1)N(CC1CC1)C(=O)c1cc(OCC2CC2)cc(C(F)(F)F)c1 (stereo not shown) [P47, 3-(cyclopropylmethoxy)-N-(cyclopropylmethyl)-N-[1-(2-pyrimidin-2-yl-1,2,4-triazol-3-yl)ethyl]-5-(trifluoromethyl)benzamide]	≥ 80%	≥ 80%	mortality at 50 ppm [3]: ≥ 80%
CC(c1ncnn1-c1ncccn1)N(CC1CC1)C(=O)c1cc(OC2CCC2)cc(C(F)(F)F)c1 (stereo not shown) [P48, 3-(cyclobutoxy)-N-(cyclopropylmethyl)-N-[1-(2-pyrimidin-2-yl-1,2,4-triazol-3-yl)ethyl]-5-(trifluoromethyl)benzamide]	≥ 80%	–	–
CC(NC(=O)c1cc(OC(C)(C)C#N)cc(C(F)(F)F)c1)c1ncnn1-c1ncccn1 (stereo not shown) [P56, 3-(1-cyano-1-methyl-ethoxy)-N-[1-(2-pyrimidin-2-yl-1,2,4-triazol-3-yl)ethyl]-5-(trifluoromethyl)benzamide]	–	≥ 80%	percent control (mortality, anti-feedant effect or growth inhibition) at 200 ppm [5]: ≥ 80%; percent effect (mortality or growth inhibition) at 200 ppm [4]: ≥ 80%
CC(NC(=O)c1cc(-c2cncc(Cl)c2)cc(C(F)(F)F)c1)c1ncnn1-c1ncccn1 (stereo not shown) [P63, 3-(5-chloro-3-pyridyl)-N-[1-(2-pyrimidin-2-yl-1,2,4-triazol-3-yl)ethyl]-5-(trifluoromethyl)benzamide]	–	≥ 80%	–
CC(NC(=O)c1cc(-n2ccc(Cl)n2)nc(C(F)(F)F)c1)c1ncnn1-c1ncccn1 (stereo not shown) [P70, 2-(3-chloropyrazol-1-yl)-N-[1-(2-pyrimidin-2-yl-1,2,4-triazol-3-yl)ethyl]-6-(trifluoromethyl)pyridine-4-carboxamide]	≥ 80%	≥ 80%	percent control (mortality, anti-feedant effect or growth inhibition) at 200 ppm [5]: ≥ 80%
CC(c1ncnn1-c1ncccn1)N(CC1CC1)C(=O)c1cc(C(F)(F)F)cc(C(F)(F)C2CCC2)c1 (stereo not shown) [P71, 3-[cyclobutyl(difluoro)methyl]-N-(cyclopropylmethyl)-N-[1-(2-pyrimidin-2-yl-1,2,4-triazol-3-yl)ethyl]-5-(trifluoromethyl)benzamide]	≥ 80%	–	–

From patent US20210267203A1, “PESTICIDALLY ACTIVE AZOLE-AMIDE COMPOUNDS” (SYNGENTA PARTICIPATIONS AG, priority 2018, published 2021)
